In this test the target is Zinc finger protein Helios (Homo sapiens) (UniProt Q9UKS7). As to the kind of experiment: Induction of IKZF2 degradation in human GripTite 293 MSR cells at 30 uM incubated for 24 hrs by PathHunter assay relative to control. Format: cell-based.
Zinc finger protein Helios (Homo sapiens), sequence (Q9UKS7 whole entry): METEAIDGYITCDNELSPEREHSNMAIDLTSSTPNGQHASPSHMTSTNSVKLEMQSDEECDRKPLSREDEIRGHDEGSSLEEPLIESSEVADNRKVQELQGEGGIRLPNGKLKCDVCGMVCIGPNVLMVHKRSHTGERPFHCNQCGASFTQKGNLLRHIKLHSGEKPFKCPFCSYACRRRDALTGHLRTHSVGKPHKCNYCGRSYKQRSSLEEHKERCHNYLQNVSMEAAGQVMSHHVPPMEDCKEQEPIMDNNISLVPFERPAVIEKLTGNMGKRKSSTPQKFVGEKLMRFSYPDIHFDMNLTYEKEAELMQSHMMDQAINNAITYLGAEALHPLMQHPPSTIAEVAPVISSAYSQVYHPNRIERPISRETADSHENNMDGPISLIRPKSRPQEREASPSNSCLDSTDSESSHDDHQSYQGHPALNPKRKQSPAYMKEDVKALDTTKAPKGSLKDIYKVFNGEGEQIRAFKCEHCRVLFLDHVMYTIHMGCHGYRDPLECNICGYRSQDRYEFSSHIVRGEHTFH

As to `CC1CC(c2ccc3c(c2)CN(C2CCC(=O)NC2=O)C3=O)CC(C)N1Cc1ccccc1` (configuration not stated), the Activity amounted to 35%. For `CC1CC(c2ccc3c(c2)CN(C2CCC(=O)NC2=O)C3=O)CC(C)N1` (configuration not stated) the value was 30%.

(Values after ChEMBL document CHEMBL5393446, “3-(1-oxo-5-(piperidin-4-yl)isoindolin-2-yl)piperidine-2,6-dione derivatives and uses thereof” (2022).)
